Data reported in patent publication US20230372434A1, “METHOD OF TREATING FIBROSIS WITH A COMBINATION THERAPY” (COHBAR, INC., priority 2020, published 2023).
Square brackets hold non-standard residues; d marks the D form. Primed or numbered codes have the meaning given here. Ends that are not written are not given here. PEG12′ = not defined here; Nle = CCCC[C@H](N)C(=O)O

How the values were obtained:
[1] = tested on: established lung fibrosis induced by bleomycin in male C57BL/6 mice; experiment: Therapeutic mouse model of idiopathic pulmonary fibrosis, peptide combined with nintedanib (Example 1); type: in vivo; conditions: peptide 5 mg/kg/day IP; for Mean Pro-inflammatory Cytokine Level IFNγ / Mean Pro-inflammatory Cytokine Level IL-1β / Mean Pro-inflammatory Cytokine Level IL-6 / Mean Pro-inflammatory Cytokine Level KC/GRO / Mean Pro-inflammatory Cytokine Level MCP-1 / Mean Pro-inflammatory Cytokine Level MIP-1α / Mean Pro-inflammatory Cytokine Level TNFα: BALF, MSD; for Mean Pro-inflammatory Cytokine Level IFNγ / Mean Pro-inflammatory Cytokine Level IL-1β / Mean Pro-inflammatory Cytokine Level IL-6 / Mean Pro-inflammatory Cytokine Level KC/GRO / Mean Pro-inflammatory Cytokine Level MCP-1 / Mean Pro-inflammatory Cytokine Level MIP-1α / Mean Pro-inflammatory Cytokine Level TNFα / Mean (SEM) Number of Lymphocytes in BALF / Mean (SEM) Number of Macrophages in BALF / Mean (SEM) Number of Neutrophils in BALF: Day 21, nintedanib 60 mg/kg/day PO; for Mean (SEM) Normalized Lung Weight / Mean (SEM) Ashcroft Score / Mean (SEM) Collagen Deposition Score in Lung Tissue / Mean (SEM) Soluble Collagen Content in BALF: Day 21 after 14 days of daily treatment, nintedanib 60 mg/kg/day PO; for Mean (SEM) Ashcroft Score: H&E; for Mean (SEM) Collagen Deposition Score in Lung Tissue: Masson's Trichrome; for Mean (SEM) Soluble Collagen Content in BALF: Sircol assay
Method: The effect of combining the peptides of Formula I with a second antifibrotic drug on the progression of established lung fibrosis were assessed by monitoring lung fibrosis, lung weight, inflammatory cells in bronchoalveolar lavage fluid (BALF), soluble collagen in BALF, cytokine secretion, and body weight change in a therapeutic mouse model of idiopathic pulmonary fibrosis. Lung fibrosis was induced in lungs of male C57BL/6 mice between the ages of 6 to 8 weeks by nasophayngeal administration of bleomycin (1.5U/kg using bleomycin clinical formulation diluted in PBS). A control group of animals were administered saline by the nasopharyngeal route (no-bleomycin control group). After one week, bleomycin-treated animals were randomized to treatment groups (N=10 per group) by body weight and treated daily with vehicle control, nintedanib (60 mg/kg/day PO), peptide (5 mg/kg/day by intraperitoneal injection), or the combination of nintedanib (60 mg/kg/day PO) and peptide (5 mg/kg/day by intraperitoneal injection). After 14 days of treatment (Day 21), lungs were removed and weighed. The post-caval lobe was separated and snap frozen. The lungs were flushed with Hanks Buffer and bronchoalveolar lavage fluid (BALF) was harvested from each animal Differential cell counts in BALF were obtained. Levels of pro-inflammatory cytokines in BALF were determined using a meso scale discovery (MSD) system. Slides were prepared from the remaining BALF leukocytes, fixed and stained with May Geimsa stain and the differential counts were recorded manually. BALF was evaluated for soluble collagen using a Sircol assay. Lungs were fixed in 10% neutral buffered formalin (NBF) for histopathological analysis. Fibrosis was assessed by histopathological analysis of H&E stained mouse lungs using an Ashcroft scoring system. Collagen deposition in lung tissue was assessed by histopathological analysis of Masson's Trichrome stained mouse lungs using a standard scoring system for severity.

[2] = tested on: established lung fibrosis induced by bleomycin in male C57BL/6 mice; experiment: Therapeutic mouse model of idiopathic pulmonary fibrosis, peptides alone (Example 2); type: in vivo
Method: The effect of the peptides on the progression of established lung fibrosis were assessed by monitoring lung fibrosis, lung weight, inflammatory cells in bronchoalveolar lavage fluid (BALF), soluble collagen in BALF, cytokine secretion in BALF, and body weight change in a therapeutic mouse model of idiopathic pulmonary fibrosis. Lung fibrosis was induced in lungs of male C57BL/6 mice between the ages of 6 to 8 weeks by nasophayngeal administration of bleomycin (1.5 U/kg using bleomycin clinical formulation diluted in PBS). A control group of animals were administered saline by the nasopharyngeal route (no-bleomycin control group). After one week, bleomycin-treated animals were randomized to treatment groups (N=10 per group) by body weight and treated daily with vehicle control, nintedanib positive control (60 mg/kg/day PO) or peptide (5 or 15 mg/kg/day by intraperitoneal injection). After 14 days of treatment (Day 21), lungs were removed and weighed. The post-caval lobe was separated and snap frozen. The lungs were flushed with Hanks Buffer and bronchoalveolar lavage fluid (BALF) was harvested from each animal Total BALF leukocyte were counted. Slides were prepared from the remaining BALF leukocytes, fixed and stained with May Geimsa stain and the differential counts were recorded manually. BALF was evaluated for soluble collagen using a Sircol assay. Lungs were fixed in 10% neutral buffered formalin (NBF) for histopathological analysis. Fibrosis was assessed by histopathological analysis of H&E stained mouse lungs using an Ashcroft scoring system. Collagen deposition in lung tissue was assessed by histopathological analysis of Masson's Trichrome stained mouse lungs using a standard scoring system for severity.

Row | Molecule | Mean Pro-inflammatory Cytokine Level IFNγ [1] | Mean Pro-inflammatory Cytokine Level IL-1β [1] | Mean Pro-inflammatory Cytokine Level IL-6 [1] | Mean Pro-inflammatory Cytokine Level KC/GRO [1] | Mean Pro-inflammatory Cytokine Level MCP-1 [1] | Mean Pro-inflammatory Cytokine Level MIP-1α [1] | Mean Pro-inflammatory Cytokine Level TNFα [1] | Mean (SEM) Number of Lymphocytes in BALF [1] | Mean (SEM) Number of Macrophages in BALF [1] | Mean (SEM) Number of Neutrophils in BALF [1] | Mean (SEM) Normalized Lung Weight [1] | Mean (SEM) Ashcroft Score [1] | Mean (SEM) Collagen Deposition Score in Lung Tissue [1] | Mean (SEM) Ashcroft Score ([2]; Day 21, 15 mg/kg/day IP) | Mean (SEM) Collagen Content in BALF ([2]; Day 21, 15 mg/kg/day IP) | Mean (SEM) Collagen Deposition Score in Lung Tissue ([2]; Day 21, 15 mg/kg/day IP) | Mean (SEM) Normalized Lung Weight ([2]; Day 21, 15 mg/kg/day IP) | Mean (SEM) Number of Lymphocytes in BALF ([2]; Day 21, 15 mg/kg/day IP) | Mean (SEM) Number of Macrophages in BALF ([2]; Day 21, 15 mg/kg/day IP) | Mean (SEM) Number of Neutrophils in BALF ([2]; Day 21, 15 mg/kg/day IP) | other results
1 | RVIRACLGVGLLGDL(dA)GK{PEG12} (RVIRACLGVGLLGDL[dA]GK(PEG12′); also: homodimer) [SEQ ID NO: 30] | 0.037 pg/mL | 0.03 pg/mL | 64.6 pg/mL | 16.7 pg/mL | 7.59 pg/mL | 0.52 pg/mL | 2.85 pg/mL | 8930 (3350) | 41700 (5740) | 1830 (1080) | 1.36 (0.10) | 2.93 (0.33) | 2.30 (0.26) | 2.00 (0.37) | 0.063 (0.007) mg/mL | 1.80 (0.33) | 1.22 (0.11) | 896 (254) | 3780 (559) | 122 (88) | Mean (SEM) Soluble Collagen Content in BALF [1]: 0.067 (0.013) mg/mL; Mean (SEM) Ashcroft Score ([2]; Day 21, 5 mg/kg/day IP): 1.92 (0.21); Mean (SEM) Collagen Content in BALF ([2]; Day 21, 5 mg/kg/day IP): 0.071 (0.020) mg/mL; Mean (SEM) Collagen Deposition Score in Lung Tissue ([2]; Day 21, 5 mg/kg/day IP): 1.67 (0.29); Mean (SEM) Normalized Lung Weight ([2]; Day 21, 5 mg/kg/day IP): 1.15 (0.03); Mean (SEM) Number of Lymphocytes in BALF ([2]; Day 21, 5 mg/kg/day IP): 1210 (664); Mean (SEM) Number of Macrophages in BALF ([2]; Day 21, 5 mg/kg/day IP): 5070 (1130); Mean (SEM) Number of Neutrophils in BALF ([2]; Day 21, 5 mg/kg/day IP): 0 (0)
2 | RVIR(Nle)CLGVGLLGDL(dA)GK{PEG12} (RVIR[Nle]CLGVGLLGDL[dA]GK(PEG12′); also: homodimer, disulfide at Cys6) [SEQ ID NO: 32] | 0.020 pg/mL | 0.07 pg/mL | 269 pg/mL | 21.5 pg/mL | 29.7 pg/mL | 0.95 pg/mL | 3.05 pg/mL | 28600 (5480) | 86600 (7070) | 5850 (2220) | 1.57 (0.20) | 3.12 (0.45) | 2.56 (0.48) | 2.26 (0.35) | 0.091 (0.016) mg/mL | 2.10 (0.35) | 1.20 (0.05) | 1270 (584) | 5030 (974) | 96 (64) | Mean (SEM) Soluble Collagen Content in BALF [1]: 0.058 (0.005) mg/mL; Mean (SEM) Ashcroft Score ([2]; Day 21, 5 mg/kg/day IP): 2.26 (0.27); Mean (SEM) Collagen Content in BALF ([2]; Day 21, 5 mg/kg/day IP): 0.074 (0.019) mg/mL; Mean (SEM) Collagen Deposition Score in Lung Tissue ([2]; Day 21, 5 mg/kg/day IP): 2.20 (0.25); Mean (SEM) Normalized Lung Weight ([2]; Day 21, 5 mg/kg/day IP): 1.17 (0.03); Mean (SEM) Number of Lymphocytes in BALF ([2]; Day 21, 5 mg/kg/day IP): 946 (579); Mean (SEM) Number of Macrophages in BALF ([2]; Day 21, 5 mg/kg/day IP): 5530 (1090); Mean (SEM) Number of Neutrophils in BALF ([2]; Day 21, 5 mg/kg/day IP): 61 (61)
3 | COC(=O)c1ccc2c(c1)NC(=O)/C2=C(\Nc1ccc(N(C)C(=O)CN2CCN(C)CC2)cc1)c1ccccc1 [Nintedanib, nintedanib, reference compound] | 0.019 pg/mL | 0.50 pg/mL | 384 pg/mL | 29.3 pg/mL | 35.8 pg/mL | 1.05 pg/mL | 2.76 pg/mL | 18700 (5200) | 49200 (6450) | 3040 (1370) | 1.49 (0.17) | 2.82 (0.39) | 2.22 (0.43) | – | – | – | – | – | – | – | Mean (SEM) Soluble Collagen Content in BALF [1]: 0.048 (0.005) mg/mL; Mean (SEM) Ashcroft Score ([2]; Day 21, 60 mg/kg/day PO): 2.35 (0.38); Mean (SEM) Collagen Content in BALF ([2]; Day 21, 60 mg/kg/day PO): 0.061 (0.011) mg/mL; Mean (SEM) Collagen Deposition Score in Lung Tissue ([2]; Day 21, 60 mg/kg/day PO): 2.20 (0.36); Mean (SEM) Normalized Lung Weight ([2]; Day 21, 60 mg/kg/day PO): 1.16 (0.07); Mean (SEM) Number of Lymphocytes in BALF ([2]; Day 21, 60 mg/kg/day PO): 1180 (631); Mean (SEM) Number of Macrophages in BALF ([2]; Day 21, 60 mg/kg/day PO): 5030 (823); Mean (SEM) Number of Neutrophils in BALF ([2]; Day 21, 60 mg/kg/day PO): 201 (77)
4 | RVIRMCLGVGLLGDLAGK{PEG12} (RVIRMCLGVGLLGDLAGK(PEG12′); also: homodimer, disulfide at Cys6) [SEQ ID NO: 28] | – | – | – | – | – | – | – | – | – | – | – | – | – | 2.24 (0.25) | 0.080 (0.016) mg/mL | 2.00 (0.26) | 1.27 (0.05) | 1210 (233) | 6340 (792) | 261 (117) | –
5 | RVIRACLGVGLLGDLAGK{PEG12} (RVIRACLGVGLLGDLAGK(PEG12′); also: homodimer, disulfide at Cys6) [SEQ ID NO: 36] | – | – | – | – | – | – | – | – | – | – | – | – | – | 3.33 (0.33) | 0.068 (0.008) mg/mL | 2.89 (0.35) | 1.32 (0.12) | 884 (442) | 6430 (930) | 165 (140) | Mean (SEM) Ashcroft Score ([2]; Day 21, 5 mg/kg/day IP): 2.65 (0.40); Mean (SEM) Collagen Content in BALF ([2]; Day 21, 5 mg/kg/day IP): 0.081 (0.010) mg/mL; Mean (SEM) Collagen Deposition Score in Lung Tissue ([2]; Day 21, 5 mg/kg/day IP): 2.50 (0.37); Mean (SEM) Normalized Lung Weight ([2]; Day 21, 5 mg/kg/day IP): 1.19 (0.06); Mean (SEM) Number of Lymphocytes in BALF ([2]; Day 21, 5 mg/kg/day IP): 987 (316); Mean (SEM) Number of Macrophages in BALF ([2]; Day 21, 5 mg/kg/day IP): 5180 (1030); Mean (SEM) Number of Neutrophils in BALF ([2]; Day 21, 5 mg/kg/day IP): 113 (60)
